Experiment [1] has as its system KOPN-8. Kind of experiment: Cell viability in AML and DLBCL cell lines (Cell Titer-Glo). To be noted: Homo sapiens; KOPN-8, Cell Titer-Glo, 72 hr. The experiment is classed as cell-based. Here is the method: (§1) A panel of AML and DLBCL cell lines was profiled for effects of compound 3 on cell viability. Cells were seeded at a count of 3000-8000 cells per well/40 μl in a 384-well plate and incubated at 37° C., 5% CO2 overnight. Cells were treated with test compounds at 10 concentrations within a desired concentration range (e.g. 0.5 nM-10 μM) for generation of dose response curves by preparing serial dilutions of the test compound in DMSO which were further diluted with culture medium and then added in a volume of […] to each well. Cells were cultured in the presence of inhibitors at various concentrations for 72 hr. The assay was terminated by addition of […] Cell Titer-Glo reagent (Promega, Madison, Wis.) to each well. Contents were mixed, the plate was incubated for 10 min at room temperature and luminescence was measured. The IC50 value of each test compound was calculated with XLFit curve fitting software.
(In general: ATP-based viability assays read luminescence as a measure of living cells.)

Experiment [2] deals with KG-1a. Described as above. The format is cell-based. Conditions: Homo sapiens, 72 hr. Here is the method:
as §1

The subject of experiment [3] is SU-DHL4. The description is as above. The experiment is classed as cell-based. Conditions: Homo sapiens, SU-DHL-4, 72 hr. On the procedure:
as §1

The test system of experiment [4] is OCI-AML3. Described as above. The experiment is classed as cell-based. Conditions: Homo sapiens, OCI-AML-3, 72 hr. On the procedure: as §1
Experiment [5] relates to RS4; 11. The description is as above. The experiment is classed as cell-based. Conditions: Homo sapiens, 11, Cell Titer-Glo, 72 hr. On the procedure:
as §1

Experiment [6] concerns SU-DHL6. The description is as above. To be noted: Homo sapiens, SU-DHL-6, 72 hr. The experiment is classed as cell-based. Here is the method: as §1
Experiment [7] concerns WSU-DLCL2. The description is as above. The format is cell-based. To be noted: Homo sapiens, WSUDLCL2, 72 hr. On the procedure:
as §1

The test system of experiment [8] is NOMO-1. The description is as above. The format is cell-based. Conditions: Homo sapiens; NOMO-1, Cell Titer-Glo, 72 hr. On the procedure:
as §1

Experiment [9] concerns MV-4-11 human acute myeloid leukemia cell line. The experiment is described as follows: Second cell viability assay in MV-4-11 (Cell Titer-Glo). To be noted: Homo sapiens; MV4-11, Cell Titer-Glo, 72 hrs; read-out: Cell Viability IC50 in MV4-11 cells. The format is cell-based. An outline of the steps: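 MV-4-11 cells seeded at 15000 per well, rested 1 h, then treated with 8 concentrations (e.g. 5 nM–10 µM) for 72 h at 37 °C, 5% CO2. Viability by Cell Titer-Glo luminescence; IC50 from sigmoidal variable-slope nonlinear regression.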

In experiment [10] the test system is c-Myc. Kind of experiment: Measurement of c-Myc suppression after washoff (Western blot). The experiment is classed as cell-based, human. Conditions: MV4-11, 2 μM for 2 hr, washed, further 6 hr. Here is the method:
MV4-11 cells were incubated with 2 μM of JQ1, mivebresib or a test compound for 2 hr. The cells were then washed twice with fresh culture medium and further cultured for another 6 hr. Cells were extracted with SDS sample buffers and then subjected to Western blot analysis to measure c-Myc. Compounds 2, 3, 12, 17, 409, 411 and 412 were tested in these assays.
For orientation: In western blotting, separated proteins are transferred to a membrane and probed.

In experiment [11] the test system is Molt-4. The experiment is described as follows: Cell viability assay (XTT). The experiment is classed as cell-based. Conditions: Homo sapiens; Molt-4, XTT, up to 72 hr. On the procedure:
(§2) A panel of BET-sensitive and insensitive cell lines were profiled for effect on cell viability using compound 3. Cells were cultured in the presence of inhibitors at various concentrations for up to 72 hr. For cell viability assays as previously described (Guo Y, et al. 2012. J Hematol Oncol 5:72; Chen Y, et al. 2016. Oncogene 35:2971-8), 0.08 mg/ml XTT (2,3-bis-(2-methoxy-4-nitro-5-sulfophenyl)-2H-tetrazolium-5-carboxanilide) and 8 μM phenazine methyl sulfate (PMS) were added to the cells at the end of the test compound or vehicle treatment duration, and absorbance at 450 nm was measured after 3 hr incubation at 37° C. Assays were performed in triplicates. IC50 values were estimated using a non-linear mixed effect model fitting a sigmoid curve to the experimental dose response data (Vis D J, et al. 2016. Pharmacogenomics 17(7):691-700).
In general terms: Tetrazolium dyes change colour on reduction, which living cells bring about.

The subject of experiment [12] is SET-2. The experiment is described as follows: Cell viability assay (XTT). The experiment is classed as cell-based. Conditions: Homo sapiens; SET-2, XTT, up to 72 hr. On the procedure: as §2
The subject of experiment [13] is U2973. The experiment is described as follows: Cell viability assay (XTT). The experiment is classed as cell-based. To be noted: Homo sapiens, U-2973, up to 72 hr. Here is the method: as §2
The test system of experiment [14] is MEG-01. The experiment is described as follows: Cell viability assay (XTT). Conditions: Homo sapiens; MEG-01, XTT, up to 72 hr. The experiment is classed as cell-based. On the procedure:
as §2

Experiment [15] has as its system HEL. Kind of experiment: Cell viability assay (XTT). The format is cell-based. Conditions: Homo sapiens, up to 72 hr. Here is the method:
as §2

Experiment [16] concerns THP-1. The experiment is described as follows: Cell viability assay (XTT). The format is cell-based. Conditions: Homo sapiens; THP-1, XTT, up to 72 hr. On the procedure: as §2
Experiment [17] relates to 22Rv1 cells. The experiment is described as follows: 22Rv1 cell proliferation assay with wash-off or mock wash-off. The format is cell-based, human. To be noted: Homo sapiens. Here is the method: A 22Rv1 cell proliferation assay was used to assess durability of test compound effects after transient exposure of test compound to cells. 22Rv1 cells were seeded at 3000 cells per well/100 μl in a 96-well plate and incubated with test compounds at specified dilutions for 2 hr at 37° C. and 5% CO2. Following the incubation, test compound was washed off and replacement culture medium without test compound was added. Wash-off was performed by three PBS washes. The cells were incubated for an additional 96 hr at 37° C. and 5% CO2. In parallel, a mock wash-off was performed with cells that were treated identically except that the replacement culture medium contained test compound. The plate was incubated for 4 hr at 37° C., 5% CO2 and fluorescence was measured using excitation and emission wavelengths of 535 and 590 nm, respectively. Cell viability data were plotted using GraphPad Prism (GraphPad Software, Inc., San Diego, Calif.). In addition, a nonlinear regression model with a sigmoidal dose response and variable slope within GraphPad Prism was used to calculate the IC50 value of individual test compounds.

Read-outs that look alike come from different tables or passages of the source.

On to `C=CS(=O)(=O)Nc1ccc(Oc2ccc(F)cc2F)c(-c2cc(NC)c(=O)n(C)c2)c1` [Compound 3, N-(4-(2,4-difluorophenoxy)-3-(1-methyl-5-(methylamino)-6-oxo-1,6-dihydropyridin-3-yl)phenyl)ethenesulfonamide], for which the half-inhibitory concentration (IC50) in [1] stood at 9 nM; in [2], 285 nM; in experiment [3], 22 nM; in experiment [4], 50 nM; in [5], 128 nM; in [6] it was 47 nM. In addition, the IC50 is 84 nM in experiment [7]; 205 nM in experiment [8]; 28 nM in experiment [9]; 300 nM in [11]; 90 nM in experiment [12]; 240 nM in [13]. For the same compound, the 50% inhibitory concentration (IC50) in experiment [14] worked out at 310 nM; in experiment [15], 400 nM; in [16], 250 nM; in [17] (22Rv1, 2 hr exposure, three PBS washes, additional 96 hr without compound, read-out: Wash-off IC50) it was 96 nM; in [17] (22Rv1, 2 hr, replacement medium with test compound, additional 96 hr, read-out: Mock wash-off IC50) it was 342 nM. Also, in experiment [10], the “c-Myc suppression activity after washoff” value is “sustained c-Myc suppression activity”.

Broadly, the IC50 is the concentration that inhibits the measured activity by half.

Values taken from US11192900B2, “Substituted 1,6-dihydropyridinones and 1,2-dihydroisoquinolinones as bet inhibitors” (NUVATION BIO INC., priority 2018, dated 2021).
